EC50 data for 18 compounds are collected here from patent US20260285866A1, “MODULATORS OF TRPML, THEIR COMPOSITIONS AND METHODS OF USE” (Caraway Therapeutics, Inc., priority 2024, published 2026).

Bounds are passed on as bounds.

The target in one experiment is Human TRPML1 (Homo sapiens, UniProt Q9GZU1, L15A/L16A/L577A/L578A). The experiment in a line: Fluorescent TRPML1 assay (Fluo4-AM, HEK-293 Trex cells expressing hTRPML1). To be noted: fluorescent calcium assay, doxycycline-induced hTRPML1. Type of experiment: cell-based. The method, then:
Example 27. Fluorescent TRPML Assays
(§1) HEK-293 Trex cells were stably transfected with a construct consisting of the human coding sequence for TRPML1 cloned into the tet-inducible plasmid pCDNA5 T/O. Mutations were introduced into the TRPML1 sequence to facilitate expression on the cell surface (Silvia Vergarajauregui, Rosa Puertollano Traffic. 2006 March; 7(3): 337-353). Briefly, the cells are cultured in 150 mm round tissue culture dishes containing 20 mL of media. The day before the assay the cells are rinsed with DPBS-Ca-Mg and then treated briefly with Trypsin-EDTA. The Trypsin-EDTA is diluted with growth media, and cells are counted. 38×10^6 cells are re-plated into 150 mm round tissue culture dishes in media containing 0.5 μg/mL doxycycline to induce expression of hTRPML1.
(§2) The day of the experiment cells are lifted from the plates as above and collected by centrifugation. The cells are then suspended in dye loading buffer consisting of Ringer's solution supplemented with 0.1% Pluronic Acid and 1 micromolar Fluo4-AM dye. Cells are loaded for ~60 minutes in the dark with occasional mixing. The cells are collected by centrifugation, the loading media aspirated, and the cells resuspended in 25 mL Ringer's solution and incubated ~60 minutes in the dark. The cells are again collected by centrifugation, rinsed in Ringer's Solution and resuspended to 0.2×10^6 cells/mL in modified Ringer's solution containing 10 mM calcium.
(§3) Compounds are dissolved to a concentration of 10 millimolar with DMSO. Compound plates are created by dispensing compounds into 384 well black wall clear bottom plates (Greiner 781091). Positive and negative controls are included on each plate. Typically, different amounts of each compound are tested ranging from 100 nanoMoles (20 micromolar final concentration) decreasing in half-log steps to 31 picoMoles (6 nanomolar final concentration). Each concentration is typically tested in triplicate.
(§4) 50 microliters of dye-loaded cells are dispensed into each well of the compound assay plate created above. The fluorescence in each well is then determined with an excitation wavelength of 480 nm and an emission wavelength of 540 nm using either a Molecular Devices SpectraMax multimode plate reader or a Hamamatsu FDSS/uCell plate imager.
(§5) The resulting fluorescence for each well is exported as an ascii file and loaded into our LIMS for analysis. The percent activity of each compound at each concentration is determined by comparison to the positive and negative control wells included in each plate.
(§6) EC50 values were calculated using a non-linear regression of Prism. In the table, “A” indicates an EC50 of less than 100 nM, “B” indicates an EC50 range from 100 nM to 500 nM: “C” indicates an EC50 range from 500 nM to 2 μM; and “D” indicates an EC50 greater than 2 μM.

A further experiment deals with T1, Human TRPML3 (Homo sapiens, UniProt Q8TDD5).
T1 construct: expressed in transfected cells
T1 sequence (Q8TDD5 1-553): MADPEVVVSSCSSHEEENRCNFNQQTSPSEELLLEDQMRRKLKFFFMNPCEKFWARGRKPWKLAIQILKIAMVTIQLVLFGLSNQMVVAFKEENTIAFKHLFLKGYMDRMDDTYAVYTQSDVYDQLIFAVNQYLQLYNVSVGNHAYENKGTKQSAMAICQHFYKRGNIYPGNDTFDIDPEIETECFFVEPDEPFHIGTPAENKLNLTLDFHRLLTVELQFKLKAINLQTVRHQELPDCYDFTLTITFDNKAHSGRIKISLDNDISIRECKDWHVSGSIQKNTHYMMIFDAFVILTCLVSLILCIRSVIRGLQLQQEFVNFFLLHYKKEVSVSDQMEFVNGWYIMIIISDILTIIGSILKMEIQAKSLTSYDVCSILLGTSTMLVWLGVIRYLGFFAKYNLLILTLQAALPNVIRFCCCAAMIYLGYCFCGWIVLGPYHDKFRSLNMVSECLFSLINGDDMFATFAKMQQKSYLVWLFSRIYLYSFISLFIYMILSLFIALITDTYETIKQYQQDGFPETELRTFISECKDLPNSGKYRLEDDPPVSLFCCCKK
The experiment in a line: Fluorescent TRPML3 assay (as for TRPML1). The experiment is classed as cell-based. To be noted: fluorescent calcium assay as for TRPML1, TRPML3 subtype. The method, then:
as §1, §2, §3, §4, §5
Assays for TRPML2 and TRPML3 were performed as above for TRPML1, by substituting the appropriate TRPML2 or TRPML3 subtype for the TRPML1.
as §6

Sequence of Human TRPML1 (Q9GZU1 whole entry L15A/L16A/L577A/L578A): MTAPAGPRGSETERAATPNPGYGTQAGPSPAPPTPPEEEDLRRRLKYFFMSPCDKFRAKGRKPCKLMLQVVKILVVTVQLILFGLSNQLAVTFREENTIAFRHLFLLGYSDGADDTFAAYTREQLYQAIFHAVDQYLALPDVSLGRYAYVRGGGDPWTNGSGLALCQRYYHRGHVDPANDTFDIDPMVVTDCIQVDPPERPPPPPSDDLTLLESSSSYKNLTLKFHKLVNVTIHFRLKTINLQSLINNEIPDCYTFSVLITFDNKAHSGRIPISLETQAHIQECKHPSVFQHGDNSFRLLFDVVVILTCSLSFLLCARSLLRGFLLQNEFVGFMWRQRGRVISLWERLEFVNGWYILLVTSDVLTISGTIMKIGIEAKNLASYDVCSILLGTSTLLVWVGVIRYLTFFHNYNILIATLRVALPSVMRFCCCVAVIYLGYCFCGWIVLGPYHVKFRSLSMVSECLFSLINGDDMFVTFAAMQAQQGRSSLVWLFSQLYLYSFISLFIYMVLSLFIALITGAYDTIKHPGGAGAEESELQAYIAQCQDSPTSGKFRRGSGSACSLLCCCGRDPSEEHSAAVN

One may read the EC50 as the midpoint of the concentration-response curve. For `C[C@@H]1CN(c2ncnc3c2c(-c2ccccc2)cn3-c2cc(C#N)ccn2)[C@@H](C)CN1C(=O)C1(O)CCC1` [Compound 109, 2-(4-((2S,5R)-4-(1-hydroxycyclobutane-1-carbonyl)-2,5-dimethylpiperazin-1-yl)-5-phenyl-7H-pyrrolo[2,3-d]pyrimidin-7-yl)isonicotinonitrile], the figures for the EC50 at Human TRPML1 and at Human TRPML3 were less than 100 nM and 500 to 2000 nM, respectively.

Consider `C[C@@H]1CN(c2ncnc3c2c(-c2ccccc2)cn3-c2cc(C#N)ccn2)[C@@H](C)CN1C(=O)C(C)(C)O` [Compound 101, 2-(4-((2S,5R)-4-(2-hydroxy-2-methylpropanoyl)-2,5-dimethylpiperazin-1-yl)-5-phenyl-7H-pyrrolo[2,3-d]pyrimidin-7-yl)isonicotinonitrile], for which the values for the EC50 on Human TRPML1 and on Human TRPML3 were less than 100 nM and 500 to 2000 nM, respectively. In the case of `C[C@@H]1CN(c2ncnc3c2c(-c2nncs2)cn3-c2cc(C#N)ccn2)[C@@H](C)CN1C(=O)C(C)(C)O` [Compound 155, 2-(4-((2S,5R)-4-(2-hydroxy-2-methylpropanoyl)-2,5-dimethylpiperazin-1-yl)-5-(1,3,4-thiadiazol-2-yl)-7H-pyrrolo[2,3-d]pyrimidin-7-yl)isonicotinonitrile], the EC50 on Human TRPML1 is greater than 2000 nM. Consider `C[C@@H]1CN(c2nccc3c2c(-c2ccncc2)cn3-c2cccc(F)c2)[C@@H](C)CN1C(=O)C(C)(C)O` [Compound 144, 1-((2R,5S)-4-(1-(3-fluorophenyl)-3-(pyridin-4-yl)-1H-pyrrolo[3,2-c]pyridin-4-yl)-2,5-dimethylpiperazin-1-yl)-2-hydroxy-2-methylpropan-1-one], for which the EC50 on Human TRPML1 and at Human TRPML3 was greater than 2000 nM throughout. As to `C[C@@H]1CN(c2ncnc3c2c(-c2ncco2)cn3-c2cc(C#N)ccn2)[C@@H](C)CN1C(=O)C(C)(C)O` [Compound 134, 2-(4-((2S,5R)-4-(2-hydroxy-2-methylpropanoyl)-2,5-dimethylpiperazin-1-yl)-5-(oxazol-2-yl)-7H-pyrrolo[2,3-d]pyrimidin-7-yl)isonicotinonitrile], the values for the EC50 on Human TRPML1 and on Human TRPML3 were 500 to 2000 nM and greater than 2000 nM, respectively. `C[C@H]1CN(C(=O)C(C)(C)O)[C@H](CO)CN1c1ncnc2c1c(-c1ccccc1F)cn2-c1cc(C#N)ccn1` [Compound 168, 2-(5-(2-fluorophenyl)-4-((2S,5S)-4-(2-hydroxy-2-methylpropanoyl)-5-(hydroxymethyl)-2-methylpiperazin-1-yl)-7H-pyrrolo[2,3-d]pyrimidin-7-yl)isonicotinonitrile]: the figures for the EC50 at Human TRPML1 and on Human TRPML3 were 500 to 2000 nM and greater than 2000 nM, respectively. Regarding `C[C@H]1CN(c2ncnc3c2c(-c2ccccc2F)cn3-c2cc(C#N)ccn2)[C@@H](C)CN1C(=O)C(C)(C)O` [Compound 169, 2-(5-(2-fluorophenyl)-4-((2S,5S)-4-(2-hydroxy-2-methylpropanoyl)-2,5-dimethylpiperazin-1-yl)-7H-pyrrolo[2,3-d]pyrimidin-7-yl)isonicotinonitrile], the EC50 at Human TRPML1 is 500 to 2000 nM; on Human TRPML3, greater than 2000 nM. For `C[C@@H]1CN(c2nccc3c2c(-c2ccncc2)cn3-c2cc(F)ccn2)[C@@H](C)CN1C(=O)C(C)(C)O` [Compound 141, 1-((2R,5S)-4-(1-(4-fluoropyridin-2-yl)-3-(pyridin-4-yl)-1H-pyrrolo[3,2-c]pyridin-4-yl)-2,5-dimethylpiperazin-1-yl)-2-hydroxy-2-methylpropan-1-one], the EC50 on Human TRPML1 and on Human TRPML3 was greater than 2000 nM each time. Consider `C[C@@H]1CN(c2ncnc3c2c(-c2ccccc2)cn3-c2cc(C#N)ccn2)[C@@H](C)CN1C(=O)C1(O)CN(C)C1` [Compound 130, 2-(4-((2S,5R)-4-(3-hydroxy-1-methylazetidine-3-carbonyl)-2,5-dimethylpiperazin-1-yl)-5-phenyl-7H-pyrrolo[2,3-d]pyrimidin-7-yl)isonicotinonitrile], for which the half-maximal effective concentration (EC50) at Human TRPML1 is 500 to 2000 nM; on Human TRPML3, greater than 2000 nM. Regarding `C[C@@H]1CN(c2ncnc3c2c(-c2ccccc2F)cn3-c2cc(OC(F)(F)F)ccn2)[C@@H](C)CN1C(=O)C(C)(C)O` [Compound 103, 1-((2R,5S)-4-(5-(2-fluorophenyl)-7-(4-(trifluoromethoxy)pyridin-2-yl)-7H-pyrrolo[2,3-d]pyrimidin-4-yl)-2,5-dimethylpiperazin-1-yl)-2-hydroxy-2-methylpropan-1-one], the EC50 on Human TRPML1 was in the range of 100 to 500 nM; at Human TRPML3 it was 500 to 2000 nM. In the same order, the values of `C[C@H]1CN(C(=O)C2(O)CCC2)CCN1c1ncnc2c1c(-c1ccccc1)cn2-c1cc(C#N)ccn1` [Compound 118, (S)-2-(4-(4-(1-hydroxycyclobutane-1-carbonyl)-2-methylpiperazin-1-yl)-5-phenyl-7H-pyrrolo[2,3-d]pyrimidin-7-yl)isonicotinonitrile] are 100 to 500 nM and 100 to 500 nM.

Turning to `C[C@@H]1CN(c2ncnc3c2c(-c2ccno2)cn3-c2cc(C#N)ccn2)[C@@H](C)CN1C(=O)C(C)(C)O` [Compound 152], the EC50 is 500 to 2000 nM at Human TRPML1 and greater than 2000 nM on Human TRPML3. Turning to `C[C@@H]1CN(c2ncnc3c2c(-c2ccncc2)cn3-c2cccc(Cl)c2)[C@@H](C)CN1C(=O)C(C)(C)O` [Compound 137, 1-((2R,5S)-4-(7-(3-chlorophenyl)-5-(pyridin-4-yl)-7H-pyrrolo[2,3-d]pyrimidin-4-yl)-2,5-dimethylpiperazin-1-yl)-2-hydroxy-2-methylpropan-1-one], the EC50 at Human TRPML1 is 500 to 2000 nM; at Human TRPML3, greater than 2000 nM. `CC(C)(O)C(=O)N1CCN(c2ncnc3c2c(-c2ccccc2F)cn3-c2cc(C#N)ccn2)CC1` [Compound 124, 2-(5-(2-fluorophenyl)-4-(4-(2-hydroxy-2-methylpropanoyl)piperazin-1-yl)-7H-pyrrolo[2,3-d]pyrimidin-7-yl)isonicotinonitrile]: the EC50 on Human TRPML1 lay in the range of 500 to 2000 nM. For `C[C@@H]1CN(c2ncnc3c2c(C2CC2)cn3-c2cc(C#N)ccn2)[C@@H](C)CN1C(=O)C(C)(C)O` [Compound 105, 2-(5-cyclopropyl-4-((2S,5R)-4-(2-hydroxy-2-methylpropanoyl)-2,5-dimethylpiperazin-1-yl)-7H-pyrrolo[2,3-d]pyrimidin-7-yl)isonicotinonitrile], the EC50 at Human TRPML1 is 500 to 2000 nM.

For `C[C@@H]1CN(c2ncnc3c2c(C2CC2)cn3-c2cc(C#N)ccn2)[C@@H](C)CN1C(=O)CC(O)(C(F)(F)F)C(F)(F)F` [Compound 162, 2-(5-cyclopropyl-4-((2S,5R)-2,5-dimethyl-4-(4,4,4-trifluoro-3-hydroxy-3-(trifluoromethyl)butanoyl)piperazin-1-yl)-7H-pyrrolo[2,3-d]pyrimidin-7-yl)isonicotinonitrile], the EC50 on Human TRPML3 fell in the range of 100 to 500 nM. As for `C[C@@H]1CN(c2ncnc3c2c(-c2ccncc2)cn3-c2cc(F)cc(F)c2)[C@@H](C)CN1C(=O)C(C)(C)O` [Compound 138, 1-((2R,5S)-4-(7-(3,5-difluorophenyl)-5-(pyridin-4-yl)-7H-pyrrolo[2,3-d]pyrimidin-4-yl)-2,5-dimethylpiperazin-1-yl)-2-hydroxy-2-methylpropan-1-one], on Human TRPML1, the EC50 is greater than 2000 nM. As for `C[C@@H]1CN(c2nccc3c2c(-c2ccncc2)cn3-c2cc(F)cc(F)c2)[C@@H](C)CN1C(=O)C(C)(C)O` [Compound 143, 1-((2R,5S)-4-(1-(3,5-difluorophenyl)-3-(pyridin-4-yl)-1H-pyrrolo[3,2-c]pyridin-4-yl)-2,5-dimethylpiperazin-1-yl)-2-hydroxy-2-methylpropan-1-one], on Human TRPML1, the EC50 is greater than 2000 nM.
